The results in this text go back to BindingDB's records for doi:10.7270/Q2V40SP7 (The Scripps Research Institute Molecular Screening Center, 2011).

For this assay, the target named is T1, Peroxisome proliferator-activated receptor gamma (Homo sapiens, UniProt P37231).
T1 sequence (P37231 whole entry): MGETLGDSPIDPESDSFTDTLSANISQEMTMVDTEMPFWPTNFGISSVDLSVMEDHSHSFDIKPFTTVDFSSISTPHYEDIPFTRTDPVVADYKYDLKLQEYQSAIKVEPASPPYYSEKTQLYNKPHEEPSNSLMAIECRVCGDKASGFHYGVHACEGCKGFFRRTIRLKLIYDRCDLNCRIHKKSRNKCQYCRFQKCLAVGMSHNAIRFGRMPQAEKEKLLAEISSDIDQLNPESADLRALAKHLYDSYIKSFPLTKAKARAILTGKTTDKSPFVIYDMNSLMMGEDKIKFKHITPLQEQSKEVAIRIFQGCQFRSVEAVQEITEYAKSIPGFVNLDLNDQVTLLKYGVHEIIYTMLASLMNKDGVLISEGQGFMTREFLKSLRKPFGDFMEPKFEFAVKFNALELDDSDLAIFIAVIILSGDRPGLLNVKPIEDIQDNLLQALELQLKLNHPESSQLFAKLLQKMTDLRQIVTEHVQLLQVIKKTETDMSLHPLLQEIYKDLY
As to the kind of experiment: PPARg ligand-binding domain binders, dose response, PPARg partial agonist project, biochemical, TR-FRET, LanthaScreen (AID 504446). (Time-resolved FRET reads energy transfer from a long-lived donor to a nearby acceptor.)

Structures are written as SMILES.

The IC50 is the concentration that gives 50% inhibition. As to `COc1ccc2nc(N3C(=O)C(=O)C(C(=O)c4ccco4)C3c3ccc(C)o3)sc2c1` (centres undefined), the IC50 stood at 1.2 µM. The result for `Cc1ccc2nc(N3C(=O)C(=O)C(C(=O)c4ccco4)C3c3ccc(C)o3)sc2c1` (centres undefined) [3-[2-furanyl(oxo)methyl]-4-hydroxy-1-(6-methyl-1,3-benzothiazol-2-yl)-2-(5-methyl-2-furanyl)-2H-pyrrol-5-one;oxalic acid] reads 14 µM; that for `Cc1ccc2nc(N3C(=O)C(=O)C(C(=O)c4ccc(C)o4)C3c3ccco3)sc2c1` (centres undefined), 2.6 µM; that for `CCOc1ccc2nc(N3C(=O)C(=O)C(C(=O)c4ccco4)C3c3ccco3)sc2c1` (centres undefined) [1-(6-ethoxy-1,3-benzothiazol-2-yl)-2-(2-furanyl)-3-[2-furanyl(oxo)methyl]-4-hydroxy-2H-pyrrol-5-one], 8.2 µM.
